Columns and labels:
Assay in all cases: cells
LU-165 = format: functional, cell-based; settings: Homo sapiens
Description: SANGER: Inhibition of human LU-165 cell growth in a cell viability assay.

CAL-148 = format: functional, cell-based; settings: Homo sapiens
Description: SANGER: Inhibition of human CAL-148 cell growth in a cell viability assay.

LB647-SCLC = format: functional, cell-based; settings: Homo sapiens;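 further: cell growth inhibition, read out by a viability assay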
Description: SANGER: Inhibition of human LB647-SCLC cell growth in a cell viability assay.

D-336MG = format: functional, cell-based; settings: Homo sapiens
Description: SANGER: Inhibition of human D-336MG cell growth in a cell viability assay.

HCC1599 = format: functional, cell-based; settings: Homo sapiens;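 further: growth inhibition of HCC1599 cells, read out in a cell viability assay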
Description: SANGER: Inhibition of human HCC1599 cell growth in a cell viability assay.

MONO-MAC-6 = format: functional, cell-based; settings: Homo sapiens;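 further: cell viability assay measuring growth inhibition of human MONO-MAC-6 cells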
Description: SANGER: Inhibition of human MONO-MAC-6 cell growth in a cell viability assay.

MC-CAR = format: functional, cell-based; settings: Homo sapiens;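 further: growth inhibition of the human MC-CAR cell line, read out by a cell viability assay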
Description: SANGER: Inhibition of human MC-CAR cell growth in a cell viability assay.

NB14 = format: functional, cell-based; settings: Homo sapiens;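 further: growth inhibition of NB14 cells measured with a cell viability assay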
Description: SANGER: Inhibition of human NB14 cell growth in a cell viability assay.

NCI-H322M = format: functional, cell-based; settings: Homo sapiens;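 further: cell viability assay measuring inhibition of growth of human NCI-H322M cells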
Description: SANGER: Inhibition of human NCI-H322M cell growth in a cell viability assay.

NCI-H345 = format: functional, cell-based; settings: Homo sapiens;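 further: growth inhibition of NCI-H345 cells measured with a cell viability assay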
Description: SANGER: Inhibition of human NCI-H345 cell growth in a cell viability assay.

IST-SL2 = format: functional, cell-based; settings: Homo sapiens;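 further: growth inhibition of human IST-SL2 cells, read out by a cell viability assay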
Description: SANGER: Inhibition of human IST-SL2 cell growth in a cell viability assay.

NCI-H2171 = format: functional, cell-based; settings: Homo sapiens;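 further: growth inhibition of human NCI-H2171 cells, read out by a cell viability assay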
Description: SANGER: Inhibition of human NCI-H2171 cell growth in a cell viability assay.

YT = format: functional, cell-based; settings: Homo sapiens
Description: SANGER: Inhibition of human YT cell growth in a cell viability assay.

HGC-27 = format: functional, cell-based; settings: Homo sapiens;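 further: growth inhibition of human HGC-27 cells, read out in a cell viability assay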
Description: SANGER: Inhibition of human HGC-27 cell growth in a cell viability assay.

SW1783 = format: functional, cell-based; settings: Homo sapiens;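 further: cell growth inhibition measured with a viability assay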
Description: SANGER: Inhibition of human SW1783 cell growth in a cell viability assay.

A204 = format: functional, cell-based; settings: Homo sapiens;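 further: growth inhibition of human A204 cells, read out with a cell viability assay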
Description: SANGER: Inhibition of human A204 cell growth in a cell viability assay.

DBTRG-05MG = format: functional, cell-based; settings: Homo sapiens;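 further: cell viability assay measuring growth inhibition of human DBTRG-05MG cells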
Description: SANGER: Inhibition of human DBTRG-05MG cell growth in a cell viability assay.

LCLC-97TM1 = format: functional, cell-based; settings: Homo sapiens;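 further: cell viability assay measuring growth inhibition of human LCLC-97TM1 cells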
Description: SANGER: Inhibition of human LCLC-97TM1 cell growth in a cell viability assay.

CAL-27 = format: functional, cell-based; settings: Homo sapiens;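 further: Viability-based readout, IC50 reflecting inhibition of CAL-27 cell growth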
Description: SANGER: Inhibition of human CAL-27 cell growth in a cell viability assay.

ABC-1 = format: functional, cell-based; settings: Homo sapiens;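 further: growth inhibition of human ABC-1 cells, read out by a cell viability assay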
Description: SANGER: Inhibition of human ABC-1 cell growth in a cell viability assay.

COLO-741 = format: functional, cell-based; settings: Homo sapiens
Description: SANGER: Inhibition of human COLO-741 cell growth in a cell viability assay.

GCT = format: functional, cell-based; settings: Homo sapiens;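 further: GCT cell line proliferation inhibition, read out with a cell viability assay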
Description: SANGER: Inhibition of human GCT cell growth in a cell viability assay.

HT1197 = format: functional, cell-based, HT-1197; settings: Homo sapiens
Description: SANGER: Inhibition of human HT-1197 cell growth in a cell viability assay.

BFTC-905 = format: functional, cell-based; settings: Homo sapiens
Description: SANGER: Inhibition of human BFTC-905 cell growth in a cell viability assay.

Panc1005 = format: functional, cell-based; settings: Homo sapiens;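 further: growth inhibition of human PANC-10-05 cells, measured by a cell viability assay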
Description: SANGER: Inhibition of human PANC-10-05 cell growth in a cell viability assay.

FTC-133 = format: functional, cell-based; settings: Homo sapiens
OE19 = format: functional, cell-based; settings: Homo sapiens;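 further: growth inhibition of OE19 cells, measured through a cell viability read-out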
Description: SANGER: Inhibition of human OE19 cell growth in a cell viability assay.

KYSE-180 = format: functional, cell-based; settings: Homo sapiens;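 further: growth inhibition of KYSE-180 cells, read out with a cell viability assay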
Description: SANGER: Inhibition of human KYSE-180 cell growth in a cell viability assay.

MHH-ES-1 = format: functional, cell-based; settings: Homo sapiens;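 further: cell growth inhibition measured by a cell viability assay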
Description: SANGER: Inhibition of human MHH-ES-1 cell growth in a cell viability assay.

LCLC-103H cell line = format: functional, cell-based; settings: Homo sapiens
Description: SANGER: Inhibition of human LCLC-103H cell growth in a cell viability assay.

ChaGo-K-1 = format: functional, cell-based; settings: Homo sapiens;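 further: growth inhibition of ChaGo-K-1 cells, read out with a cell viability assay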
Description: SANGER: Inhibition of human ChaGo-K-1 cell growth in a cell viability assay.

BPH-1 = format: functional, cell-based; settings: Homo sapiens;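 further: cell viability assay measuring growth inhibition of human BPH-1 cells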
Description: SANGER: Inhibition of human BPH-1 cell growth in a cell viability assay.

MeWo = format: functional, cell-based; settings: Homo sapiens;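 further: growth inhibition of MeWo cells, determined by a cell viability readout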
Description: SANGER: Inhibition of human Mewo cell growth in a cell viability assay.

MKN-45 = format: functional, cell-based; settings: Homo sapiens;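 further: growth inhibition of human MKN-45 cells, measured with a cell viability assay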
Description: SANGER: Inhibition of human MKN45 cell growth in a cell viability assay.

Capan-2 = format: functional, cell-based; settings: Homo sapiens;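 further: Capan-2 cell growth inhibition, read out with a viability assay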
Description: SANGER: Inhibition of human Capan-2 cell growth in a cell viability assay.

KYSE-70 cell line = format: functional, cell-based; settings: Homo sapiens;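 further: cell viability assay read-out, with IC50 expressing suppression of KYSE-70 cell growth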
Description: SANGER: Inhibition of human KYSE-70 cell growth in a cell viability assay.

NCI-H1563 = format: functional, cell-based; settings: Homo sapiens;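 further: growth inhibition of human NCI-H1563 cells, read out with a cell viability assay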
Description: SANGER: Inhibition of human NCI-H1563 cell growth in a cell viability assay.

HCC1395 = format: functional, cell-based; settings: Homo sapiens;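 further: growth inhibition of HCC1395 cells, read out by a cell viability assay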
Description: SANGER: Inhibition of human HCC1395 cell growth in a cell viability assay.

LoVo = format: functional, cell-based; settings: Homo sapiens;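 further: growth inhibition of human LoVo cells, read out with a cell viability assay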
Description: SANGER: Inhibition of human LoVo cell growth in a cell viability assay.

NCI-H520 = format: functional, cell-based; settings: Homo sapiens;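 further: growth inhibition of NCI-H520 cells, measured by a cell viability assay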
Description: SANGER: Inhibition of human NCI-H520 cell growth in a cell viability assay.

GAMG = format: functional, cell-based; settings: Homo sapiens;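 further: cell growth inhibition measured by a viability assay in the GAMG human cell line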
Description: SANGER: Inhibition of human GAMG cell growth in a cell viability assay.

SCC-25 = format: functional, cell-based; settings: Homo sapiens;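 further: growth inhibition of SCC-25 cells, measured with a cell viability assay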
Description: SANGER: Inhibition of human SCC-25 cell growth in a cell viability assay.

RO82-W-1 = format: functional, cell-based; settings: Homo sapiens;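 further: growth inhibition of human RO82-W-1 cells, measured with a cell viability assay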
Description: SANGER: Inhibition of human RO82-W-1 cell growth in a cell viability assay.

CWR22R = format: functional, cell-based; settings: Homo sapiens, 22Rv1;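 further: growth inhibition of 22Rv1 cells, read out with a cell viability assay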
Description: SANGER: Inhibition of human 22RV1 cell growth in a cell viability assay.

Hs-578T = format: functional, cell-based; settings: Homo sapiens
Description: SANGER: Inhibition of human Hs-578-T cell growth in a cell viability assay.

SK-MES-1 = format: functional, cell-based; settings: Homo sapiens;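 further: growth inhibition of human SK-MES-1 cells, read out with a cell viability assay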
Description: SANGER: Inhibition of human SK-MES-1 cell growth in a cell viability assay.

PANC-08-13 = format: functional, cell-based; settings: Homo sapiens;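 further: cell growth inhibition, measured with a cell viability assay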
Description: SANGER: Inhibition of human PANC-08-13 cell growth in a cell viability assay.

UMUC3 = format: functional, cell-based; settings: Homo sapiens;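 further: growth inhibition of human UM-UC-3 cells, read out with a cell viability assay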
Description: SANGER: Inhibition of human UM-UC-3 cell growth in a cell viability assay.

MKN-7 = format: functional, cell-based; settings: Homo sapiens;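 further: growth inhibition of MKN-7 cells, read out with a cell viability assay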
Description: SANGER: Inhibition of human MKN7 cell growth in a cell viability assay.

NY = format: functional, cell-based; settings: Homo sapiens
Description: SANGER: Inhibition of human NY cell growth in a cell viability assay.

HT-1080 = format: functional, cell-based; settings: Homo sapiens
Description: SANGER: Inhibition of human HT-1080 cell growth in a cell viability assay.

UMC-11 = format: functional, cell-based; settings: Homo sapiens;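 further: growth inhibition of UMC-11 cells, read out with a cell viability assay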
Description: SANGER: Inhibition of human UMC-11 cell growth in a cell viability assay.

NCI-H1573 = format: functional, cell-based; settings: Homo sapiens;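 further: growth inhibition of NCI-H1573 cells, read out with a cell viability assay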
Description: SANGER: Inhibition of human NCI-H1573 cell growth in a cell viability assay.

NCI-H2228 = format: functional, cell-based; settings: Homo sapiens;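 further: growth inhibition of human NCI-H2228 cells, read out by a cell viability assay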
Description: SANGER: Inhibition of human NCI-H2228 cell growth in a cell viability assay.

COR-L105 = format: functional, cell-based; settings: Homo sapiens;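 further: cell growth inhibition determined with a viability assay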
Description: SANGER: Inhibition of human COR-L105 cell growth in a cell viability assay.

T-24 = format: functional, cell-based; settings: Homo sapiens;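 further: growth inhibition of T-24 cells, read out with a cell viability assay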
Description: SANGER: Inhibition of human T-24 cell growth in a cell viability assay.

HCC1806 = format: functional, cell-based; settings: Homo sapiens;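 further: growth inhibition of the cancer cell line, determined with a cell viability assay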
Description: SANGER: Inhibition of human HCC1806 cell growth in a cell viability assay.

UACC-62 = format: functional, cell-based; settings: Homo sapiens;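 further: growth inhibition of human UACC-62 cells, read out by a cell viability assay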
Description: SANGER: Inhibition of human UACC-62 cell growth in a cell viability assay.

HCC1937 = format: functional, cell-based; settings: Homo sapiens;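 further: growth inhibition measured with a cell viability read-out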
Description: SANGER: Inhibition of human HCC1937 cell growth in a cell viability assay.

MDA-MB-157 = format: functional, cell-based; settings: Homo sapiens
Description: SANGER: Inhibition of human MDA-MB-157 cell growth in a cell viability assay.

Ca9-22 = format: functional, cell-based; settings: Homo sapiens;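 further: growth inhibition of Ca9-22 cells, read out with a cell viability assay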
Description: SANGER: Inhibition of human Ca9-22 cell growth in a cell viability assay.

FaDu = format: functional, cell-based; settings: Homo sapiens;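 further: cell viability readout of growth inhibition in FaDu cells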
Description: SANGER: Inhibition of human FADU cell growth in a cell viability assay.

OE33 = format: functional, cell-based; settings: Homo sapiens
Description: SANGER: Inhibition of human OE33 cell growth in a cell viability assay.

NB12 = format: functional, cell-based; settings: Homo sapiens
Description: SANGER: Inhibition of human NB12 cell growth in a cell viability assay.

CCNc1cc(N[C@H]2CC[C@@H](O)CC2)nc(Nc2ccc3c(ccn3Cc3ccccc3)c2)n1
IC50 (LU-165): > 5120 nM | IC50 (CAL-148): > 5120 nM | IC50 (LB647-SCLC): > 5120 nM | IC50 (D-336MG): > 5120 nM | IC50 (HCC1599): > 5120 nM | IC50 (MONO-MAC-6): > 5120 nM | IC50 (MC-CAR): > 5120 nM | IC50 (NB14): > 5.12 µM | IC50 (NCI-H322M): > 5120 nM | IC50 (NCI-H345): > 5120 nM | IC50 (IST-SL2): 4560 nM | IC50 (NCI-H2171): > 5120 nM | IC50 (YT): > 5120 nM

O=c1cc(N2CCOCC2)oc2c(-c3cccc4c3sc3ccccc34)cccc12
IC50 (HGC-27): > 0.002 mM | IC50 (SW1783): > 0.002 mM | IC50 (A204): > 0.002 mM | IC50 (DBTRG-05MG): > 0.002 mM | IC50 (LCLC-97TM1): > 2 µM | IC50 (D-336MG): > 2000 nM | IC50 (CAL-27): > 0.002 mM | IC50 (ABC-1): > 0.002 mM | IC50 (COLO-741): > 0.002 mM | IC50 (GCT): > 0.002 mM | IC50 (HT1197): > 0.002 mM | IC50 (BFTC-905): > 0.002 mM | IC50 (Panc1005): > 0.002 mM | IC50 (FTC-133): > 2000 nM | IC50 (OE19): > 0.002 mM | IC50 (KYSE-180): > 2 µM | IC50 (MHH-ES-1): > 0.002 mM | IC50 (LCLC-103H cell line): > 0.002 mM | IC50 (ChaGo-K-1): > 0.002 mM | IC50 (BPH-1): > 0.002 mM | IC50 (MeWo): > 0.002 mM | IC50 (MKN-45): > 0.002 mM | IC50 (Capan-2): > 0.002 mM | IC50 (KYSE-70 cell line): > 0.002 mM | IC50 (NCI-H1563): > 2000 nM | IC50 (HCC1395): > 0.002 mM | IC50 (LoVo): 0.867 µM | IC50 (NCI-H520): > 2 µM | IC50 (GAMG): > 0.002 mM | IC50 (SCC-25): > 0.002 mM | IC50 (RO82-W-1): > 0.002 mM | IC50 (NB14): > 2 µM | IC50 (CWR22R): > 0.002 mM | IC50 (Hs-578T): > 0.002 mM | IC50 (SK-MES-1): > 0.002 mM | IC50 (PANC-08-13): > 0.002 mM | IC50 (UMUC3): > 0.002 mM | IC50 (MKN-7): > 0.002 mM | IC50 (NY): > 2 µM | IC50 (HT-1080): > 0.002 mM | IC50 (UMC-11): > 0.002 mM | IC50 (NCI-H1573): > 2 µM | IC50 (NCI-H2228): > 0.002 mM | IC50 (COR-L105): > 0.002 mM | IC50 (T-24): > 0.002 mM | IC50 (HCC1806): > 2 µM | IC50 (UACC-62): > 0.002 mM | IC50 (HCC1937): > 0.002 mM | IC50 (MDA-MB-157): > 0.002 mM | IC50 (Ca9-22): > 0.002 mM | IC50 (FaDu): > 0.002 mM | IC50 (OE33): > 0.002 mM | IC50 (NB12): > 0.002 mM

NC(=O)c1ncn([C@@H]2O[C@H](COP(=O)(O)O)[C@@H](O)[C@H]2O)c1N
IC50 (HGC-27): 1.32 mM | IC50 (SW1783): > 2 mM | IC50 (A204): > 2 mM | IC50 (DBTRG-05MG): 1.29 mM | IC50 (LCLC-97TM1): 917 µM | IC50 (CAL-27): > 2 mM | IC50 (ABC-1): > 2 mM | IC50 (COLO-741): > 2 mM | IC50 (GCT): 1.39 mM | IC50 (HT1197): > 2 mM | IC50 (BFTC-905): > 2 mM | IC50 (Panc1005): > 2 mM | IC50 (OE19): > 2 mM | IC50 (KYSE-180): 453 µM | IC50 (MHH-ES-1): 1.51 mM | IC50 (LCLC-103H cell line): 1.37 mM | IC50 (ChaGo-K-1): 1.38 mM | IC50 (BPH-1): 1.56 mM | IC50 (MeWo): > 2 mM | IC50 (MKN-45): > 2 mM | IC50 (Capan-2): > 2 mM | IC50 (KYSE-70 cell line): > 2 mM | IC50 (HCC1395): > 2 mM | IC50 (LoVo): > 2000 µM | IC50 (NCI-H520): 744 µM | IC50 (GAMG): > 2 mM | IC50 (SCC-25): 1.23 mM | IC50 (RO82-W-1): > 2 mM | IC50 (NB14): 1450 µM | IC50 (CWR22R): > 2 mM | IC50 (Hs-578T): > 2 mM | IC50 (SK-MES-1): > 2 mM | IC50 (PANC-08-13): 1.3 mM | IC50 (UMUC3): 1.75 mM | IC50 (MKN-7): > 2 mM | IC50 (NY): 495 µM | IC50 (HT-1080): > 2 mM | IC50 (UMC-11): > 2 mM | IC50 (NCI-H1573): 353 µM | IC50 (NCI-H2228): 1.95 mM | IC50 (COR-L105): > 2 mM | IC50 (T-24): > 2 mM | IC50 (HCC1806): 361 µM | IC50 (UACC-62): > 2 mM | IC50 (HCC1937): > 2 mM | IC50 (MDA-MB-157): 1.21 mM | IC50 (Ca9-22): 1.26 mM | IC50 (FaDu): 1.06 mM | IC50 (OE33): 1.33 mM | IC50 (NB12): > 2 mM

Cc1n[nH]c2ccc(-c3cncc(OC[C@@H](N)Cc4c[nH]c5ccccc45)c3)cc12 [A-443654]
IC50 (LU-165): 620 nM | IC50 (CAL-148): 88.3 nM | IC50 (LB647-SCLC): 224 nM | IC50 (D-336MG): 421 nM | IC50 (HCC1599): 162 nM | IC50 (MONO-MAC-6): 77.2 nM | IC50 (MC-CAR): > 1020 nM | IC50 (NB14): > 1.02 µM | IC50 (NCI-H322M): > 1020 nM | IC50 (NCI-H345): 750 nM | IC50 (IST-SL2): 194 nM | IC50 (NCI-H2171): > 1020 nM | IC50 (YT): > 1020 nM

Cc1nc(Nc2ncc(C(=O)Nc3c(C)cccc3Cl)s2)cc(N2CCN(CCO)CC2)n1 [DASATINIB]
IC50 (LU-165): > 1280 nM | IC50 (CAL-148): > 1280 nM | IC50 (LB647-SCLC): > 1280 nM | IC50 (D-336MG): 6.3 nM | IC50 (HCC1599): > 1280 nM | IC50 (MONO-MAC-6): > 1280 nM | IC50 (MC-CAR): > 1280 nM | IC50 (NB14): > 1.28 µM | IC50 (NCI-H322M): > 1280 nM | IC50 (NCI-H345): > 1280 nM | IC50 (IST-SL2): 503 nM | IC50 (NCI-H2171): > 1280 nM | IC50 (YT): > 1280 nM

Reference: ChEMBL document CHEMBL1201861, “Genomics of Drug Sensitity in Cancer screening data, Wellcome Trust Sanger Institute”
